The values below come from patent US4348401A, “N-Phenoxyalkylpiperidine derivatives” (Boehringer Mannheim GmbH, priority 1979, dated 1982).

This experiment concerns bronchospasm. In words: inhibition of antigen-induced bronchospasm (Br Sp), passively sensitized guinea pigs, Konzett and Rossler method as modified by Collier. The format is in vivo, guinea pig. As to conditions: 5 minutes before antigen, 3 minutes after antigen, vs control group. The procedure: In animals narcotized with 40 mg. sodium pentobarbital/kg. body weight, a Y cannula is introduced into the trachea and a venous cannula is introduced in the jugular vein. A cannula introduced in the carotid artery leads to a measurement chamber (Statham, P 23 Db), with which the arterial pressure is recorded via a direct-current voltage potential measuring bridge. Using a respiratory pump, rats are given an air volume, depending upon the size of the animal, of 1 to 2 ml. 64 times and guinea pigs of 7 to 15 ml. 72 times per minute. […] Upon the appearance of a bronchospasm, initiated by the intravenous administration of the antigen, in the case of the respiratory volume remaining the same, all of the supplied volume of air can no longer flow into the lungs and part of it flows off through a side arm via a valve. The method developed by the firm Basile differs from the method originally described by Konzett and Rossler in that this air volume is measured indirectly via the rate of flow with the help of a thermoelement. The strength of a bronchospasm can then be recorded as a percentage reduction of the available bronchial volume. The theoretically maximum possible bronchospasm is obtained by closing the respiration tube on the animal so that all of the air supplied flows off through the valve.
Every 30 seconds, the valve is closed for 8 seconds by a relay and the total volume is pumped into the lungs in order again to expand the bronchi and alveoli and thus to make possible a sufficient gas exchange. The percentage decrease of the available bronchial volume (X) is calculated according to the following equation: [formula] wherein a is the amplitude of the recorder in mm. at the commencement of the experiment, b is the height of the amplitude in mm. at a definite point of time and m is the maximum amplitude in mm. after closing the respiration tube on the animal.
The antigen is 2×crystallized ovalbumin. Equal amounts of a solution of the antigen in physiological sodium chloride solution and complete Freund's adjuvant are emulsified and injected intramuscularly in an amount of 2×0.15 ml. to male guinea pigs. The animals are bled and the pooled serum is stored at -20° C.
The compounds according to the present invention are administered intravenously 5 minutes before administration of the antigen.

In the case of `COC(=O)c1ccccc1OCCCN1CCC(NC(=O)c2ccccc2)CC1` [Example 2a, methyl 2-[3-(4-benzamidopiperidino)-propoxy]-benzoate], where the note is “dosage 3.0 mg/kg i.v.”, the “% inhibition Br Sp” value is 71%. With `NC(=O)c1ccccc1OCCCN1CCC(NC(=O)c2ccccc2)CC1` [Example 2b, 2-[3-(4-benzamidopiperidino)-propoxy]-benzamide], under “dosage 0.38 mg/kg i.v.”, the “% inhibition Br Sp” value was determined as 67%. In the case of `O=C(NC1CCN(CCCOc2ccccc2C(=O)O)CC1)c1ccccc1` [Example 7, 2-[3-(4-Benzamidopiperidino)-propoxy]-benzoic acid], where the note is “dosage 1.5 mg/kg i.v.”, the “% inhibition Br Sp” value is 45%.

On to `O=C(NC1CCN(CCCOc2ccccc2-c2nnn[nH]2)CC1)c1ccccc1` [Example 9, 5-{2-[3-(4-Benzamidopiperidino)-propoxy]-phenyl}-1H-tetrazole], for which the “% inhibition Br Sp” value (dosage 0.1 mg/kg i.v.) is 56%. Consider `Cc1ccccc1C(=O)NC1CCN(CCCOc2ccccc2-c2nnn[nH]2)CC1` [Example 10g, 5-{2-{3-[4-(2-methylbenzamido)-piperidino]-propoxy}-phenyl}-1H-tetrazole], for which, for the setting “dosage 0.75 mg/kg i.v.”, the “% inhibition Br Sp” value worked out at 71%. For the molecule `Cn1c(=O)c2[nH]cnc2n(C)c1=O` [aminophylline, reference compound], for the setting “dosage 24 mg/kg i.v.”, the “% inhibition Br Sp” value amounted to 29%.
